Measurements: PubChem BioAssay AID588647 (Sanford-Burnham Center for Chemical Genomics, 2011)
Values joined by “and” are separate entries in the source; they are usually repeats but may differ in a detail not shown here. Identical values can stand only once. Active and inactive are the calls of the source. The rule behind the calls is not given here.

Target: intestinal alkaline phosphatase (Mus musculus)
Test: mouse IAP inhibition by analogs – biochemical, luminescence, set 2, SAR follow-up (AID 588647)
Details: purified mouse IAP, luminescent substrate read-out

Row | Compound | IC50
1 | CC(C)(C)c1ccc(/C=N/NC(=O)c2cc(O)c(O)c(O)c2)cc1 | > 100 µM (inactive)
2 | COc1ccc(/C=N/NC(=O)c2cc(O)c(O)c(O)c2)cc1OC | > 100 µM (inactive)
3 | CC(C)Oc1ccc(CNC(=O)C2CCCN(S(=O)(=O)c3ccc4[nH]c(=O)oc4c3)C2)cc1 (stereo not given) | > 100 µM (inactive)
4 | O=C(NCc1ccc2c(c1)OCO2)C1CCCN(S(=O)(=O)c2ccc3[nH]c(=O)oc3c2)C1 (stereo not given) | > 100 µM (inactive)
5 | O=C(CCNS(=O)(=O)c1ccc2[nH]c(=O)oc2c1)NCc1cccc(Cl)c1 | > 100 µM (inactive)
6 | O=C(NCc1ccccc1)C1CCCN(S(=O)(=O)c2ccc3[nH]c(=O)oc3c2)C1 (stereo not given) | > 100 µM (inactive)
7 | O=C(N/N=C/c1ccccc1C(F)(F)F)c1cc(O)c(O)c(O)c1 | 8.46 µM
8 | CCOc1ccc(CNC(=O)C2CCCN(S(=O)(=O)c3ccc4[nH]c(=O)oc4c3)C2)cc1OC (stereo not given) | > 100 µM (inactive)
9 | O=C(N/N=C/c1cccc(Cl)c1Cl)c1cc(O)c(O)c(O)c1 | 19.9 µM
10 | CCOc1cc(C(=O)N/N=C/c2c(F)cccc2Cl)cc(OCC)c1OCC | > 100 µM (inactive)
11 | COc1ccc(/C=N/NC(=O)c2cc(O)c(O)c(O)c2)c(OC)c1 | 8.41 µM
12 | CSc1cccc(NC(=O)C2CCCN(S(=O)(=O)c3ccc4c(c3)oc(=O)n4C)C2)c1 (stereo not given) | > 100 µM (inactive)
13 | Cc1ccc(NC(=O)CCNS(=O)(=O)c2ccc3[nH]c(=O)oc3c2)cc1C | 84 µM
14 | O=C(N/N=C/c1c(F)cccc1F)c1ccc(O)cc1 | > 100 µM (inactive)
15 | Cc1ccc(C)c(NC(=O)CCNS(=O)(=O)c2ccc3[nH]c(=O)oc3c2)c1 | 0.4 µM
16 | COc1ccc(CNC(=O)CCNS(=O)(=O)c2ccc3c(c2)CCC3)c(OC)c1 | > 100 µM (inactive)
17 | COc1ccc(NS(=O)(=O)c2ccc3[nH]c(=O)oc3c2)cc1OC | > 100 µM (inactive)
18 | N#Cc1ccc(NC(=O)CNS(=O)(=O)c2ccc3[nH]c(=O)oc3c2)cc1 | 1.6 µM and 4.7 µM
19 | O=C(CCNS(=O)(=O)c1ccc2[nH]c(=O)oc2c1)NCc1ccc(C(F)(F)F)cc1 | > 100 µM (inactive)
20 | N#Cc1ccc(NS(=O)(=O)c2ccc3[nH]c(=O)oc3c2)cc1 | > 100 µM (inactive)
21 | O=C(CCNS(=O)(=O)c1ccc2[nH]c(=O)oc2c1)NCc1cccc(C(F)(F)F)c1 | 70 µM
22 | COc1ccc(OC)c(NC(=O)C2CCCN(S(=O)(=O)c3ccc4c(c3)oc(=O)n4C)C2)c1 (stereo not given) | > 100 µM (inactive)
23 | COc1cccc(C(=O)N/N=C/c2ccccc2F)c1 | > 100 µM (inactive)

Row | Compound | IC50
24 | Cc1ccccc1CNC(=O)CCCNS(=O)(=O)c1ccc2[nH]c(=O)oc2c1 | > 100 µM (inactive)
25 | COc1ccc(CNS(=O)(=O)c2ccc3[nH]c(=O)oc3c2)cc1 | 98 µM
26 | O=C(N/N=C/c1c(F)cccc1Cl)c1ccc(O)cc1 | > 100 µM (inactive)
27 | COc1ccc(CNC(=O)C2CCCN(S(=O)(=O)c3ccc4[nH]c(=O)oc4c3)C2)cc1 (stereo not given) | > 100 µM (inactive)
28 | O=C(CCCNS(=O)(=O)c1ccc2[nH]c(=O)oc2c1)NCc1ccccc1Cl | 1.6 µM and > 100 µM (inactive)
29 | O=C(N/N=C/c1ccccc1F)c1ccccc1OCc1ccccc1 | > 100 µM (inactive)
30 | O=C(CCNS(=O)(=O)c1ccc2[nH]c(=O)oc2c1)NCc1ccccc1Cl | > 100 µM (inactive)
31 | COc1cc(C(=O)N/N=C/c2c(F)cccc2Cl)cc(OC)c1OC | > 100 µM (inactive)
32 | CCOc1cc(C(=O)N/N=C/c2ccccc2F)cc(OCC)c1OCC | > 100 µM (inactive)
33 | Cc1ccc(NC(=O)CCNS(=O)(=O)c2ccc3c(c2)oc(=O)n3C)cc1C | > 100 µM (inactive)
34 | O=C(NCc1ccc(F)cc1)C1CCCN(S(=O)(=O)c2ccc3[nH]c(=O)oc3c2)C1 (stereo not given) | > 100 µM (inactive)
35 | CC(=NNC(=O)c1ccccc1OCCOc1ccccc1)c1ccccc1F | > 100 µM (inactive)
36 | O=c1[nH]c2ccc(S(=O)(=O)NCc3ccc4c(c3)OCO4)cc2o1 | > 100 µM (inactive)
37 | O=C(N/N=C/c1c(F)cccc1Cl)c1ccc(O)cc1O | > 100 µM (inactive)
38 | O=C(CCCNS(=O)(=O)c1ccc2[nH]c(=O)oc2c1)NCCc1ccc(O)cc1 | 4.2 µM
39 | O=C(CCNS(=O)(=O)c1ccc2[nH]c(=O)oc2c1)NCc1ccccc1F | > 100 µM (inactive)
40 | Cc1ccc(C)c(NS(=O)(=O)c2ccc3[nH]c(=O)oc3c2)c1 | > 100 µM (inactive)
41 | COc1ccc(/C=N\NC(=O)c2cc(O)c(O)c(O)c2)cc1CN1CCN(c2ccc(F)cc2)CC1 | 27.9 µM
42 | COc1cccc(CNC(=O)CNS(=O)(=O)c2ccc3[nH]c(=O)oc3c2)c1 | 1.8 µM and 0.73 µM
43 | COc1ccc(NC(=O)CCCNS(=O)(=O)c2ccc3[nH]c(=O)oc3c2)c(OC)c1 | 6.3 µM
44 | CSc1cccc(NC(=O)CCNS(=O)(=O)c2ccc3c(c2)oc(=O)n3C)c1 | > 100 µM (inactive)
45 | O=C(CNS(=O)(=O)c1ccc2[nH]c(=O)oc2c1)NCCc1ccc2c(c1)OCO2 | > 100 µM (inactive)
